The values below come from US6894046B2, “IL-5 inhibiting 6-azauracil derivatives” (Janssen Pharmaceutica N.V., priority 1998, dated 2005).

The test system of this test is IL-5 production in human blood. The test can be described thus: In vitro inhibition of IL-5 production in human blood (phytohemagglutinin-stimulated whole blood, ELISA). The format is cell-based. The note with it: test dose 1×10^−6 M, phytohemagglutinin 2 μg/ml, 48 hours; for inhibition at 1 µM: read-out: % inh. (percentage inhibition of IL-5 production). As for the experimental part:
EXAMPLE C.1: IN VITRO INHIBITION OF IL-5 PRODUCTION IN HUMAN BLOOD
Peripheral blood from healthy male donors was drawn into heparinized syringes (12.5 U heparin/ml). Blood samples were three-fold diluted in RMPI 1640 medium (Life Technologies, Belgium) supplemented with 2 mM L-glutamine, 100 U/ml penicillin and 100 μg/ml streptomycin, and 300 μl fractions were distributed in 24-well multidisc plates. Blood samples were preincubated (60 minutes at 37° C.) in a humidified 6% CO2-atmosphere with 100 μl of drug solvent (final concentration 0.02% dimethylsulfoxide in RPMI 1640) or with 100 μl of an appropriate dose of test compound before being stimulated by the addition of 100 μl of phytohemagglutinin HA17 (Murex, UK) at a final concentration of 2 μg/ml. After 48 hours, cell-free supernatant fluids were collected by centrifugation and stored at −70° C. until tested for the presence of IL-5.
IL-5 measurements were conducted as described in Van Wauwe et al. (1996, Inflamm Res, 45, 357-363) on page 358 using ELISA.
Table 6 lists the percentage inhibition of IL-5 production (column “% inh”) at a test dose of 1×10^−6 M, or in case the percentage inhibition is marked with an “*” 1×10^−5 M, for the compounds of the present invention.

For “1-[[2-[1-[2,6-dichloro-4-(4,5-dihydro-3,5-dioxo-1,2,4-triazin-2(3H)-yl)-phenyl]-1-methylethyl]-4-phenyl-2-thiazolyl]acetyl-4-phenylmethyl)piperazine [Compound 35]”, the “% inh. (percentage inhibition of IL-5 production)” value worked out at 63%.

Consider “1′-[[2-[1-[2,6-dichloro-4-(4,5-dihydro-3,5-dioxo-1,2,4-triazin-2(3H)-yl)phenyl]-1-methylethyl-4-phenyl-5-thiazolyl]acetyl]-(1,4′-dipiperidine) [Compound 24]”, for which the “% inh. (percentage inhibition of IL-5 production)” value turned out to be 32%.

Consider “2-[3,5-dichloro-4-(2-pyridinyl-methyl)phenyl]-1,2,4-triazine-3,5(2H,4H)-dione hydrochloride(:1); hydrate(1:1) [Compound 107]”, for which the “% inh. (percentage inhibition of IL-5 production)” value worked out at 14%.

Regarding “3-[2-[1-[2,6-dichloro-4-(4,5-dihydro-3,5-dioxo-1,2,4-triazin-2(3H)-yl)phenyl]-1-methylethyl-4-(2-chlorophenyl)-5-thiazolyl]-N-(2-methoxyethyl)-benzamide [Compound 63]”, the “% inh. (percentage inhibition of IL-5 production)” value amounted to 38%.

A word on the inhibition: it is how much of the control response was suppressed. Take `CC(C)(c1nc(-c2ccccc2)c(C(O)c2ccccc2)s1)c1c(Cl)cc(-n2ncc(=O)[nH]c2=O)cc1Cl` (racemic) [Compound 29, (±)-2-[3,5-dichloro-4-[1-[5-(hydroxyphenylmethyl)4-phenyl-2-thiazolyl]-1-methyl-ethyl]phenyl]-1,2,4-triazin-3,5(2H,4H)-dione]: the inhibition at 1 µM was found to be 71%.

Regarding `CC(C)(c1nc(-c2ccccc2)cs1)c1c(Cl)cc(-n2ncc(=O)[nH]c2=O)cc1Cl` [Compound 1, 2-[3,5-dichloro-4-[1-methyl-1-(4-phenyl-2-thiazolyl)ethyl]phenyl]-1,2,4-triazine-3,5(2H,4H)-dione], the inhibition at 1 µM worked out at 90.5%.

Regarding `CN(C)Cc1sc(C(C)(C)c2c(Cl)cc(-n3ncc(=O)[nH]c3=O)cc2Cl)nc1-c1ccccc1.Cl` [Compound 2], the “% inh. (percentage inhibition of IL-5 production)” value is on record as 92%.

Take `Cc1sc(C(C)(C)c2c(Cl)cc(-n3ncc(=O)[nH]c3=O)cc2Cl)nc1-c1cccc(Cl)c1` [Compound 3, 2-[3,5-di-chloro-4-[1-[4-(3-chlorophenyl)-5-methyl-2-thiazolyl]-1-methylethyl]phenyl]-1,2,4-triazine-3,5(2H,4H)-dione]: the inhibition at 1 µM amounted to 92%.

On to `CC(C)(c1nc(-c2ccccc2Cl)cs1)c1c(Cl)cc(-n2ncc(=O)[nH]c2=O)cc1Cl` [Compound 4], for which the “% inh. (percentage inhibition of IL-5 production)” value amounted to 94%.

For `CC(C)(c1nc(-c2cccs2)cs1)c1c(Cl)cc(-n2ncc(=O)[nH]c2=O)cc1Cl` [Compound 5], the “% inh. (percentage inhibition of IL-5 production)” value is reported as 90%.

Consider `CCOC(=O)c1sc(C(C)(C)c2c(Cl)cc(-n3ncc(=O)[nH]c3=O)cc2Cl)nc1-c1ccccc1` [Compound 6], for which the “% inh. (percentage inhibition of IL-5 production)” value is on record as 94%.

Regarding `CC(C)(c1nc(-c2ccncc2)cs1)c1c(Cl)cc(-n2ncc(=O)[nH]c2=O)cc1Cl` [Compound 7], the “% inh. (percentage inhibition of IL-5 production)” value is on record as 88%.

Regarding `CC(C)(c1nc(-c2cccc(Cl)c2)cs1)c1c(Cl)cc(-n2ncc(=O)[nH]c2=O)cc1Cl` [Compound 8], the “% inh. (percentage inhibition of IL-5 production)” value is recorded as 85%.

For `CCOC(=O)Cc1sc(C(C)(C)c2c(Cl)cc(-n3ncc(=O)[nH]c3=O)cc2Cl)nc1-c1ccccc1` [Compound 9], the “% inh. (percentage inhibition of IL-5 production)” value was found to be 88%.

As for `Cc1sc(C(C)(C)c2c(Cl)cc(-n3ncc(=O)[nH]c3=O)cc2Cl)nc1-c1ccccc1` [Compound 10], the “% inh. (percentage inhibition of IL-5 production)” value turned out to be 85%.

Take `CC(C)(c1nc(-c2ccccc2F)cs1)c1c(Cl)cc(-n2ncc(=O)[nH]c2=O)cc1Cl` [Compound 11]: the “% inh. (percentage inhibition of IL-5 production)” value came to 88%.

`CC(C)(c1nc(-c2ccc(Br)cc2)cs1)c1c(Cl)cc(-n2ncc(=O)[nH]c2=O)cc1Cl` [Compound 12]: the “% inh. (percentage inhibition of IL-5 production)” value amounted to 70%.

Take `CC(C)(c1nc(-c2c(F)cccc2F)cs1)c1c(Cl)cc(-n2ncc(=O)[nH]c2=O)cc1Cl` [Compound 13]: the “% inh. (percentage inhibition of IL-5 production)” value worked out at 75%.

In the case of `CC(C)(c1nc(-c2ccccc2)c(N2CCOCC2)s1)c1c(Cl)cc(-n2ncc(=O)[nH]c2=O)cc1Cl` [Compound 14], the “% inh. (percentage inhibition of IL-5 production)” value came to 78%.

Turning to `Cc1sc(C(C)(C)c2c(Cl)cc(-n3ncc(=O)[nH]c3=O)cc2Cl)nc1-c1ccccc1F` [Compound 15], the “% inh. (percentage inhibition of IL-5 production)” value stood at 81%.

In the case of `CN1CCN(c2sc(C(C)(C)c3c(Cl)cc(-n4ncc(=O)[nH]c4=O)cc3Cl)nc2-c2ccccc2)CC1` [Compound 16], the “% inh. (percentage inhibition of IL-5 production)” value is 57%.

Regarding `Cc1sc(C(C)(C)c2c(Cl)cc(-n3ncc(=O)[nH]c3=O)cc2Cl)nc1-c1cccc(F)c1` [Compound 17], the “% inh. (percentage inhibition of IL-5 production)” value is reported as 94%.

Take `CC(C)(c1nc(-c2ccc(F)cc2F)cs1)c1c(Cl)cc(-n2ncc(=O)[nH]c2=O)cc1Cl` [Compound 18]: the “% inh. (percentage inhibition of IL-5 production)” value is 91%.

For `CC(C)(c1nc(-c2ccccc2)c(CC(=O)O)s1)c1c(Cl)cc(-n2ncc(=O)[nH]c2=O)cc1Cl` [Compound 19, 2-[1-[2,6-dichloro-4-(4,5-dihydro-3,5-dioxo-1,2,4-triazin-2(3H)-yl)phenyl]1-α-methylethyl]-4-phenyl-5-thiazoleacetic acid], the “% inh. (percentage inhibition of IL-5 production)” value turned out to be 13%.

For `CC(C)(c1nc(-c2ccccc2)c(CC(=O)N2CCOCC2)s1)c1c(Cl)cc(-n2ncc(=O)[nH]c2=O)cc1Cl` [Compound 20], the “% inh. (percentage inhibition of IL-5 production)” value was 80%.

As for `CC(C)(c1nc(-c2ccccc2)c(CC(=O)N2CCC(O)CC2)s1)c1c(Cl)cc(-n2ncc(=O)[nH]c2=O)cc1Cl` [Compound 22], the “% inh. (percentage inhibition of IL-5 production)” value is reported as 18%.

For the molecule `CC(C)(c1nc(-c2ccccc2)c(-c2ccccc2)s1)c1c(Cl)cc(-n2ncc(=O)[nH]c2=O)cc1Cl` [Compound 23, 2-[3,5-dichloro-4-[1-(4,5-diphenyl-2-thiazolyl)-1-methylethyl]phenyl]-1,2,4-triazine-3,5(2H,4H)-dione], the inhibition at 1 µM is 91%.

Take `CC(C)(c1nc(-c2ccccc2)c(C(=O)c2ccccc2)s1)c1c(Cl)cc(-n2ncc(=O)[nH]c2=O)cc1Cl` [Compound 25]: the “% inh. (percentage inhibition of IL-5 production)” value was determined as 79%.

Take `COc1ccccc1-c1csc(C(C)(C)c2c(Cl)cc(-n3ncc(=O)[nH]c3=O)cc2Cl)n1` [Compound 26]: the “% inh. (percentage inhibition of IL-5 production)” value stood at 84%.

Consider `Cc1sc(C(C)(C)c2c(Cl)cc(-n3ncc(=O)[nH]c3=O)cc2Cl)nc1-c1ccccc1Cl` [Compound 27], for which the “% inh. (percentage inhibition of IL-5 production)” value worked out at 77%.

Regarding `CC(C)(c1nc(-c2cccc(F)c2)cs1)c1c(Cl)cc(-n2ncc(=O)[nH]c2=O)cc1Cl` [Compound 28], the “% inh. (percentage inhibition of IL-5 production)” value was 83%.

For `COCc1sc(C(C)(C)c2c(Cl)cc(-n3ncc(=O)[nH]c3=O)cc2Cl)nc1-c1ccccc1` [Compound 30], the “% inh. (percentage inhibition of IL-5 production)” value was 93%.

For `Cc1nc(C(C)(C)c2c(Cl)cc(-n3ncc(=O)[nH]c3=O)cc2Cl)sc1-c1ccccc1` [Compound 31, 2-[3,5-dichloro-4-[1-methyl-1-(4-methyl-5-phenyl-2-thiazolyl)ethyl]phenyl]-1,2,4-triazine-3,5(2H,4H)-dione], the inhibition at 1 µM amounted to 87%.

As for `CC(C)(c1nc(-c2ccccc2Cl)c(-c2ccccc2)s1)c1c(Cl)cc(-n2ncc(=O)[nH]c2=O)cc1Cl` [Compound 32], the “% inh. (percentage inhibition of IL-5 production)” value stood at 91%.

Turning to `CC(C)(c1nc(-c2ccccc2)c(-c2cccnc2)s1)c1c(Cl)cc(-n2ncc(=O)[nH]c2=O)cc1Cl` [Compound 33, 2-[3,5-dichloro-4-[1-methyl-1-[4-phenyl-5-(3-pyridinyl)-2-thiazolyl]ethyl]phenyl]-1,2,4-triazine-3,5(2H,4H)-dione], the inhibition at 1 µM was 90%.

Consider `CC(C)(c1nc(-c2ccccc2F)c(-c2ccccc2)s1)c1c(Cl)cc(-n2ncc(=O)[nH]c2=O)cc1Cl` [Compound 34], for which the “% inh. (percentage inhibition of IL-5 production)” value is reported as 93%.

As for `CC(C)(c1nc(-c2cccc(Cl)c2)c(-c2ccccc2)s1)c1c(Cl)cc(-n2ncc(=O)[nH]c2=O)cc1Cl` [Compound 37], the “% inh. (percentage inhibition of IL-5 production)” value was found to be 92%.

For `Cc1ccccc1-c1nc(C(C)(C)c2c(Cl)cc(-n3ncc(=O)[nH]c3=O)cc2Cl)sc1-c1ccccc1` [Compound 38], the “% inh. (percentage inhibition of IL-5 production)” value is reported as 93%.

Regarding `CC(=O)N1CCC(c2sc(C(C)(C)c3c(Cl)cc(-n4ncc(=O)[nH]c4=O)cc3Cl)nc2-c2ccccc2)CC1` [Compound 39], the “% inh. (percentage inhibition of IL-5 production)” value came to 72%.

Regarding `Cc1ccccc1-c1csc(C(C)(C)c2c(Cl)cc(-n3ncc(=O)[nH]c3=O)cc2Cl)n1` [Compound 40], the “% inh. (percentage inhibition of IL-5 production)” value was determined as 89%.

Take `COCCN1CCN(Cc2sc(C(C)(C)c3c(Cl)cc(-n4ncc(=O)[nH]c4=O)cc3Cl)nc2-c2ccccc2)CC1` [Compound 42, 2-[3,5-dichloro-4-[1-[5-[[4-(2-methoxyethyl)-1-piperazinyl]methyl]-4-phenyl-2-thiazolyl]-1-methylethyl]phenyl]-1,2,4-triazine-3,5(2H,4H)-dione]: the inhibition at 1 µM was determined as 26%.
